# Patent publication US20250170130A1, “MODULATORS OF MYC FAMILY PROTO-ONCOGENE PROTEIN” (Nalo Therapeutics, priority 2022, published 2025)
# Like-named read-outs stand apart in the source and are kept apart here.
# Tests used:
# [1] = target: T1, MycN (Homo sapiens, UniProt P04198); assay: Degradation of MycN protein in SK-N-BE(2) cells, JESS/Western blot of lysates; type: cell-based; settings: SKNBE2, 24 h; for Dmax at 0.5 µM: read-out: % Degradation of MycN (SKNBE2) 24 h, 0.5 μM; for Dmax at 1 µM: read-out: % Degradation of MycN (SKNBE2) 24 h, 1 μM; for Dmax at 3 µM: read-out: % Degradation of MycN (SKNBE2) 24 h, 3 μM; for Dmax at 6 µM: read-out: % Degradation of MycN (SKNBE2) 24 h, 6 μM
# T1 construct: endogenous in cells; host or cells: SK-N-BE(2)
# T1 sequence (P04198 1-464): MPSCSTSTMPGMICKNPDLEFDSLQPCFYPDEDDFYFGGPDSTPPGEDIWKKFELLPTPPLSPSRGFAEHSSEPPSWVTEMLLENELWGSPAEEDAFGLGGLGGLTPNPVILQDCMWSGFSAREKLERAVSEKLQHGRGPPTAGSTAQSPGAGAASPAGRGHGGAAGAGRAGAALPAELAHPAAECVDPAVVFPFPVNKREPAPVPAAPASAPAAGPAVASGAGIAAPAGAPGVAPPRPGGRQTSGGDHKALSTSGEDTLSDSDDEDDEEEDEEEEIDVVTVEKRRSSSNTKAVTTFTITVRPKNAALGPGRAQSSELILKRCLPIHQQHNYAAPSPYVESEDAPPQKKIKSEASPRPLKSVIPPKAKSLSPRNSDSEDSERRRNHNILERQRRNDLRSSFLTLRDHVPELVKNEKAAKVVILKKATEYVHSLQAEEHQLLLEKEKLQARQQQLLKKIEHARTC
# In short: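 SK-N-BE(2) adherent cells (5E5 per well of a 6 well dish) were grown 24 hrs, then exposed to compounds diluted 1 in 20 in media, with DMSO controls, for 24 hrs. Cells were scraped, pelleted, PBS washed and lysed in RIPA buffer cocktail; after BCA protein quantitation, n-myc was detected by chemiluminescence on JESS/Western blot with tubulin and GAPDH loading controls read in the near infra red channel.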
# [2] = target: T2, MycC (Homo sapiens, UniProt P01106); assay: Degradation of MycC protein in L363 cells, JESS/Western blot of lysates; type: cell-based; settings: L-363, 24 h; for Dmax at 1 µM: read-out: % Degradation of MycC (L-363) 24 h, 1 μM; for Dmax at 3 µM: read-out: % Degradation of MycC (L-363) 24 h, 3 μM; for Dmax at 6 µM: read-out: % Degradation of MycC (L-363) 24 h, 6 μM; for Dmax at 0.5 µM: read-out: % Degradation of MycC (L-363) 24 h, 0.5 μM
# T2 construct: endogenous in cells; host or cells: L363
# In short: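 L363 suspension cells were seeded at 1E6 cells per well and exposed to compound (stock 10 mM in DMSO) for 24 hrs. Cells were collected, spun down, rinsed with PBS, lysed in RIPA buffer cocktail on ice, clarified and kept at −80 degrees. Lysate protein was quantified by BCA, and c-myc was measured on JESS by chemiluminescence with tubulin and GAPDH loading controls in the NIR channel.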
# T2 sequence (P01106 whole entry): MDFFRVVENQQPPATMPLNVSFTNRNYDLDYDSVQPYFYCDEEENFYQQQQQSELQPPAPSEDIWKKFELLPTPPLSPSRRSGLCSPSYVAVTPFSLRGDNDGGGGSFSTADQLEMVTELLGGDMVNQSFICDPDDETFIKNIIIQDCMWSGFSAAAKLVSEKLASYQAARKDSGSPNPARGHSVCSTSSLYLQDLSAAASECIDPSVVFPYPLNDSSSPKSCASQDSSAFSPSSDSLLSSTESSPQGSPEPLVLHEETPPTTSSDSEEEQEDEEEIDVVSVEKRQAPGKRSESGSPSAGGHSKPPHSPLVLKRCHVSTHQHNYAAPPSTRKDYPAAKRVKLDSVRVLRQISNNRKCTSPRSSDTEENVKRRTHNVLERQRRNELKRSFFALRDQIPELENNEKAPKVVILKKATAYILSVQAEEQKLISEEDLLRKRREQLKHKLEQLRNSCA
SMILES,"Dmax at 0.5 µM ([1]; SKNBE2 cells, 24 h, 0.5 μM) [%]","Dmax at 1 µM ([1]; SKNBE2 cells, 24 h, 1 μM) [%]","Dmax at 3 µM ([1]; SKNBE2 cells, 24 h, 3 μM) [%]","Dmax at 6 µM ([1]; SKNBE2 cells, 24 h, 6 μM) [%]","Dmax at 1 µM ([2]; L-363 cells, 24 h, 1 μM) [%]","Dmax at 3 µM ([2]; L-363 cells, 24 h, 3 μM) [%]","Dmax at 6 µM ([2]; L-363 cells, 24 h, 6 μM) [%]","Dmax at 0.5 µM ([2]; L-363 cells, 24 h, 0.5 μM) [%]",Dmax at 0.5 µM [1] [%],Dmax at 1 µM [1] [%],Dmax at 3 µM [1] [%],Dmax at 6 µM [1] [%],Dmax at 0.5 µM [2] [%],Dmax at 1 µM [2] [%],Dmax at 3 µM [2] [%],Dmax at 6 µM [2] [%]
"CN(C)CCCN(C)c1nccc(Nc2cc(C3CC3)[nH]n2)n1 [Compound 48, N^4-(5-cyclopropyl-1H-pyrazol-3-yl)-N^2-[3-(dimethylamino)propyl]-N^2-methyl-pyrimidine-2,4-diamine]",< 20,< 20,< 20,< 20,20 to 49,< 20,20 to 49,,,,,,,,,
"c1cc(Nc2cc(C3CC3)[nH]n2)nc(N2C[C@H]3CN[C@H]3C2)n1 [Compound 53, N-(5-Cyclopropyl-1H-pyrazol-3-yl)-2-[(1R,5R)-3,6-diazabicyclo[3.2.0]heptan-3-yl]pyrimidin-4-amine]",,,,< 20,,20 to 49,< 20,,,,,,,,,
"c1cc(Nc2cc(C3CC3)[nH]n2)nc(N2CC(C3CNC3)C2)n1 [Compound 64, 2-[3-(Azetidin-3-yl)azetidin-1-yl]-N-(5-cyclopropyl-1H-pyrazol-3-yl)pyrimidin-4-amine]",< 20,,< 20,20 to 49,< 20,20 to 49,20 to 49,,,,,,,,,
"CN1CC(C2CN(c3nccc(Nc4cc(C5CCCC5)[nH]n4)n3)C2)C1 [Compound 65, N-(5-Cyclopentyl-1H-pyrazol-3-yl)-2-[3-(1-methylazetidin-3-yl)azetidin-1-yl]pyrimidin-4-amine]",< 20,< 20,20 to 49,50 to 79,< 20,< 20,50 to 79,< 20,,,,,,,,
"NCC12CC(C1)N(c1nccc(Nc3cc(C4CCCC4)[nH]n3)n1)C2 [Compound 66, 2-[4-(aminomethyl)-2-azabicyclo[2.1.1]hexan-2-yl]-N-(5-cyclopentyl-1H-pyrazol-3-yl)pyrimidin-4-amine]",,80 to 100,80 to 100,80 to 100,,80 to 100,80 to 100,< 20,,,,,,,,
"COCCNCC12CC(C1)N(c1nccc(Nc3cc(C4CCCC4)[nH]n3)n1)C2 [Compound 67, N-(5-Cyclopentyl-1H-pyrazol-3-yl)-2-[4-[(2-methoxyethylamino)methyl]-2-azabicyclo[2.1.1]hexan-2-yl]pyrimidin-4-amine]",,,,,,,,,< 20,50 to 79,80 to 100,80 to 100,< 20,< 20,80 to 100,80 to 100
"CS(=O)(=O)CCNCC12CC(C1)N(c1nccc(Nc3cc(C4CCCC4)[nH]n3)n1)C2 [Compound 68, N-(5-Cyclopentyl-1H-pyrazol-3-yl)-2-[4-[(2-methylsulfonylethylamino)methyl]-2-azabicyclo[2.1.1]hexan-2-yl]pyrimidin-4-amine]",< 20,< 20,80 to 100,80 to 100,< 20,80 to 100,80 to 100,< 20,,,,,,,,
"CC1(NCC23CC(C2)N(c2nccc(Nc4cc(C5CCCC5)[nH]n4)n2)C3)COC1 [Compound 69, N-(5-Cyclopentyl-1H-pyrazol-3-yl)-2-[4-[[(3-methyloxetan-3-yl)amino]methyl]-2-azabicyclo[2.1.1]hexan-2-yl]pyrimidin-4-amine]",20 to 49,20 to 49,80 to 100,80 to 100,,80 to 100,80 to 100,< 20,,,,,,,,
"FC(F)(F)CNCC12CC(C1)N(c1nccc(Nc3cc(C4CCCC4)[nH]n3)n1)C2 [Compound 71, N-(5-Cyclopentyl-1H-pyrazol-3-yl)-2-[4-[(2,2,2-trifluoroethylamino)methyl]-2-azabicyclo[2.1.1]hexan-2-yl]pyrimidin-4-amine]",20 to 49,50 to 79,80 to 100,80 to 100,80 to 100,80 to 100,80 to 100,20 to 49,,,,,,,,
